# Paper PMC10017155 (Aging and Disease, 2023)
# “Also recorded” adds a separate entry of the source. Peptide text beside a SMILES is read from it.
# Experiments:
# [1] = molecular target: T1, immobilized Aβ42 (Homo sapiens, UniProt P05067); assay: SPR analysis of HAEE binding to immobilized Aβ42
# T1 construct: Aβ42 ([…] […]); purchased Biopeptide Co., LLC (San Diego, CA, USA); host or cells: chemical synthesis
# Experimental: All SPR measurements were carried out at 25°C using an optical biosensor Biacore 8K (GE Healthcare, USA) with CM4 optical chip. Covalent immobilization of the peptide ligands on the surface of the optical chip was performed using the sulfhydryl group of the C-terminal tetragly-cylcysteine tag. Briefly, carboxyl groups on the chip surface were activated by serial injections of mixture of 0.4 M EDC/0.1 M NHS at a flow rate of 10 μL/min for 2 min and a solution of 80 mM PDEA in 100 mM borate buffer (pH 8.5) for 4 min. Solutions of 2 μM peptides in the immobilization buffer (10 mM acetate buffer, pH 4.5) were injected for 2 min at a flow rate of 10 μL/min (three repeats). Unreacted activated groups on the chip were blocked by further injection of a solution containing 50 mM cysteine, 1 M NaCl, 0.1 M sodium acetate (pH 4.3) for 4 min at a flow rate of 5 μL/min. Possible nonspecific analyte binding to the chip surface was evaluated using a free (control) channel of the biosensor exposed to the same treatments as the working channel except peptides. SPR signals were recorded in real time in resonance units (RU; 1 RU corresponds to […]) and were presented in the form of sensorgrams showing time-dependent signal changes. […] The obtained sensorgrams were analyzed with BIAevaluation v.4.1 software.
# [2] = tested on: Aβ16; assay: NMR titration, Aβ16 with HAEE and Zn2+; format: binding; conditions: 278 K, pH 6.8, Zn2+
# Experimental: Peptides Aβ16, H6R-Aβ16 and isoD7-Aβ16 at the concentration of 0.2 - 8mM were dissolved in 10-20 mM bis-Tris-d19 (2,2-Bis(hydroxymethyl)-2,2′,2"-nitrilotrie-thanol-d19 with 98% ^2D enrichment) buffer solution (pH 6.8). Sodium salt of 3-(trimethylsilyl) propionic-2,2,3,3-d4 acid (DSS) at a concentration of 10-20 μM was added as the standard. NMR spectra were measured at 278 K in 90% H2O/10% D2O with Bruker AVANCE 600 MHz spectrometer equipped with triple resonance (^1H, ^13C and ^15N) pulsed field z gradient probe. 1D NMR spectra were processed and analyzed using the Mnova software (Mestrelab Research, Spain). In order to monitor peptide-peptide interactions NMR titration experiments were carried out. […] 1D spectra were recorded for each titration point.
# [3] = tested on: C. elegans CL2120; assay: Amyloid load by X-34 staining in C. elegans CL2120; format: in vivo
# Experimental: (§1) C. elegans CL2120 (dvIs14 [(pCL12) unc-54::beta 1-42 +(pCL26) mtl-2::GFP]) and C. elegans CL2122 (dvIs15 [(pPD30.38) unc-54(vector) + (pCL26) mtl-2::GFP]) strains were obtained from the Caenorhabditis Genetics Center. The worms were handled according to standard methods without FUDR [18]. E. coli OP50 bacteria were grown overnight in Luria-Bertani broth and 50µl were spread atop NGM or NGMZn plates. NGMZn has 20μM ZnSO4. Seeded plates were incubated at 30°C for ~16 hours and then for 1-2 hours at 15 or 25°C before worms were transferred. Lifespan and paralysis experiments (see below) were performed at 25°C for enhanced expression of Aβ. This temperature is standard when studying the effects of Aβ on C. elegans CL2120 strain [19].
# Nematodes were purified from unwanted microflora by the alkaline hypochlorite method, grown to the L4 stage at 15°C on NGM plates with bacterial lawn. […] Further, all contents were transferred to Petri plates with NGM or NGMZn with OP50 and placed in a temperature-controlled incubator at 25°C. Next day, worms were transferred onto similar media with a bacterial substrate and the lifespan was determined at 25°C (Supplementary Tables 3, 4).
# Post-hoc analysis was performed with the Tukey test.
# Figure 2.
# [4] = tested on: C. elegans CL2120; assay: Paralysis assay in C. elegans CL2120; format: in vivo; conditions: for Mean fraction of paralyzed: Aβ42 or isoD7-Aβ42 40 μM, HAEE 4 mM, 25°C, mean ± SD of 3 experiments
# Experimental: as §1
# Then, nematodes were transferred to Petri plates with NGM or NGMZn and OP-50, placed in a temperature-controlled incubator at 25°C. On the next day, worms were transferred onto similar media with a bacterial substrate and paralyzed nematodes were counted at equal time intervals. […] For the paralysis experiments, we chose the days where we could clearly distinguish between paralysis and mortality. This conformed to the third and fourth days of their adult life. While at least three repeated trials were conducted, each experiment was performed using at least 100 worms. Details regarding repeated experiments and amounts of animals used for experiments are summarized in Supplementary Table 2. Mean fraction of paralyzed worms was compared between groups with two-way ANOVA, accounting for age and treatment. Post-hoc analysis was performed with the Tukey test. Statistical analysis was performed with GraphPad Prism 9.1 software.
# [5] = HAEE 4 mM + isoD7-Aβ42 40 µM, NGMZn, X-34
# T1 sequence (P05067 672-713): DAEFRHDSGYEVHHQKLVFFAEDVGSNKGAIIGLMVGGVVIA
smiles,measurement,setting,value
"CC(=O)N[C@@H](Cc1c[nH]cn1)C(=O)N[C@@H](C)C(=O)N[C@@H](CCC(=O)O)C(=O)N[C@@H](CCC(=O)O)C(N)=O [HAEE, Ac-HAEE-NH2] (Ac-HAEE-NH2)",Kd,[1],4.1 ± 0.3 µM
same,Interaction with immobilized Aβ42 in the absence of Zn2+,"[1]; SPR, 10 mM HEPES, pH 6.8, no Zn2+, 25°C",no interaction
same,Signal at 0.2 ppm (characteristic of the dimeric form of the Aβ metal binding domain),[2]; 1H NMR,eliminated the signal
same,Zinc-dependent dimerization of Aβ16,[2]; NMR,inhibits
same,Effect of HAEE on isoD7-Aβ42/Zn2+-induced amyloidosis,[3]; [5],completely negated; also recorded: abrogates this pathological process; also recorded: fails to induce amyloidosis
same,Number of plaques and plaque area,[3]; [5],reduced back to the untreated group values
same,Effect on endogenous amyloidosis in untreated transgenic C. elegans,[3]; HAEE alone,did not affect the endogenous amyloidosis
same,Mean fraction of paralyzed,"[4]; A3 (3 days old), NGM (no Zn)",5.5±0.35%
same,Fraction of paralyzed,"[4]; A3 (3 days old), NGM (no Zn), replicate 1",5.5%
same,Fraction of paralyzed,"[4]; A3 (3 days old), NGM (no Zn), replicate 2",5.2%
same,Fraction of paralyzed,"[4]; A3 (3 days old), NGM (no Zn), replicate 3",5.9%
same,Mean fraction of paralyzed,"[4]; A4 (4 days old), NGM (no Zn)",10.5±0.55%
same,Fraction of paralyzed,"[4]; A4 (4 days old), NGM (no Zn), replicate 1",9.9%
same,Fraction of paralyzed,"[4]; A4 (4 days old), NGM (no Zn), replicate 2",10.9%
same,Mean fraction of paralyzed,"[4]; A4 (4 days old), NGMZn (ZnSO4 20 μM)",9.5±0.65%
same,Fraction of paralyzed,"[4]; A4 (4 days old), NGMZn, replicate 1",10.2%
same,Fraction of paralyzed,"[4]; A4 (4 days old), NGMZn, replicate 2",9.5%
same,Fraction of paralyzed,"[4]; A4 (4 days old), NGMZn, replicate 3",8.9%
same,Effect of HAEE on isoD7-Aβ42/Zn2+-accelerated paralysis,"[4]; HAEE 4 mM + isoD7-Aβ42 40 μM, NGMZn",suppresses this effect
